Source: ChEMBL document CHEMBL5352415, “Discovery of new macrophage M2 polarization modulators as multiple sclerosis treatment agents that enable the inflammation microenvironment remodeling” (Eur J Med Chem, 2022)
Active and inactive are the calls of the source. No cut-off for these calls is given here.

Tests used:
[1] = tested on: BMDM; assay: Inhibition of LPS-induced M1 macrophage polarization in C57BL/6 mouse BMDM cells assessed as decrease in Inos gene level preincubated with LPS for 24 hrs followed by compound addition and measured after 24 hrs by qRT-PCR analysis; format: functional, cell-based; settings: dose 0.05-2 µM
[2] = tested on: Mus musculus; assay: (§1) Anti-inflammatory activity in MOG (35 to 55 residues)/pertussis toxin-induced experimental autoimmune encephalomyelitis C57BL/6 mouse model assessed as T cell activation by measuring increase in CD44lo CD62Lhi naive T cells in spleen at 75 to 150 mg/kg, po administered once daily starting from day 7 to day 20 by flow cytometric analysis; format: functional, organism-based; settings: dose 75-150 mg/kg, time 14.0 day
[3] = tested on: Mus musculus; assay: (§2) Anti-inflammatory activity in MOG (35 to 55 residues)/pertussis toxin-induced experimental autoimmune encephalomyelitis C57BL/6 mouse model assessed as inhibition of M1 macrophage polarization by measuring decrease in Mcp1 mRNA expression in CNS administered orally once daily starting from day 7 to day 20 by qRT-PCR analysis; format: functional, organism-based; settings: dose 75-150 mg/kg, route po, time 14.0 day
[4] = tested on: Mus musculus; assay: as §2, with “M2” for “inhibition of M1”, “increase” for “decrease”, “Ym1” for “Mcp1”, “CNS at 75 to 150 mg/kg, po” for “CNS”, “administered” for “administered orally”; format: functional, organism-based; settings: dose 75-150 mg/kg, time 14.0 day
[5] = AUC(0 to infinity) in ICR mouse at 50 mg/kg, po measured upto 24 hrs by LC/MS analysis; format: ADME, organism-based; design: dose 50 mg/kg, time < 24 hrs, route po; settings: in vivo
[6] = tested on: Mus musculus; assay: (§3) Anti-inflammatory activity in MOG (35 to 55 residues)/pertussis toxin-induced experimental autoimmune encephalomyelitis C57BL/6 mouse model assessed as inhibition of CD4+ T cell differentiation by measuring reduction in Th1 (IFN-gamma+) cells in spleen administered orally once daily starting from day 7 to day 20 by flow cytometric analysis; format: functional, organism-based; settings: dose 75-150 mg/kg, route po, time 14.0 day
[7] = tested on: Mus musculus; assay: as §3, with “Th17 (Il-4+)” for “Th1 (IFN-gamma+)”; format: functional, organism-based; settings: dose 75-150 mg/kg, route po, time 14.0 day
[8] = tested on: Mus musculus; assay: as §2, with “Inos” for “Mcp1”; format: functional, organism-based; settings: dose 75-150 mg/kg, route po, time 14.0 day
[9] = tested on: BMDM; assay: Inhibition of LPS-induced M1 macrophage polarization in C57BL/6 mouse BMDM cells assessed as decrease in IFN-gamma level preincubated with LPS for 24 hrs followed by compound addition and measured after 24 hrs by qRT-PCR analysis; format: functional, cell-based; settings: dose 0.05-2 µM
[10] = tested on: Mus musculus; assay: as §1, with “DLN” for “spleen”; format: functional, organism-based; settings: dose 75-150 mg/kg, time 14.0 day
[11] = tested on: Mus musculus; assay: as §1, with “as” for “as T cell activation by measuring”, “F4/80+ CD206+ M2 macrophage” for “CD44lo CD62Lhi naive T cells”, “DLN” for “spleen”; format: functional; settings: dose 75-150 mg/kg, time 14 day
[12] = Induction of M2 macrophage polarization in C57BL/6 mouse BMDM cells assessed as fold increase in Ym1 gene level at 1 uM incubated for 24 hrs by qRT-PCR analysis; format: functional
[13] = tested on: Mus musculus; assay: as §1, with “decrease” for “increase”, “CD44hi CD62Llo” for “CD44lo CD62Lhi naive”; format: functional; design: scale not given: the % may be the effect or the level left; settings: dose 75-150 mg/kg, time 14 day
[14] = Half-life in ICR mouse at 50 mg/kg, po measured upto 24 hrs by LC/MS analysis; format: ADME, organism-based; settings: in vivo
[15] = tested on: Mus musculus; assay: as §2, with “IL-6” for “Mcp1”, “CNS at 75 to 150 mg/kg, po” for “CNS”, “administered” for “administered orally”; format: functional, organism-based; settings: dose 75-150 mg/kg, time 14.0 day
[16] = tested on: Mus musculus; assay: as §2, with “M2” for “inhibition of M1”, “increase” for “decrease”, “Arg1” for “Mcp1”, “CNS at 75 to 150 mg/kg, po” for “CNS”, “administered” for “administered orally”; format: functional, organism-based; settings: dose 75-150 mg/kg, time 14.0 day
[17] = target: T1, RAC-alpha serine/threonine-protein kinase (Mus musculus, UniProt P31750); assay: Inhibition of Akt phosphorylation at Ser473 in C57BL/6 mouse BMDM cells at 50 to 500 nM incubated for 24 hrs by Western blot analysis; format: cell-based; settings: 0.5 µM, dose 50-500 nM
T1 sequence (P31750 whole entry): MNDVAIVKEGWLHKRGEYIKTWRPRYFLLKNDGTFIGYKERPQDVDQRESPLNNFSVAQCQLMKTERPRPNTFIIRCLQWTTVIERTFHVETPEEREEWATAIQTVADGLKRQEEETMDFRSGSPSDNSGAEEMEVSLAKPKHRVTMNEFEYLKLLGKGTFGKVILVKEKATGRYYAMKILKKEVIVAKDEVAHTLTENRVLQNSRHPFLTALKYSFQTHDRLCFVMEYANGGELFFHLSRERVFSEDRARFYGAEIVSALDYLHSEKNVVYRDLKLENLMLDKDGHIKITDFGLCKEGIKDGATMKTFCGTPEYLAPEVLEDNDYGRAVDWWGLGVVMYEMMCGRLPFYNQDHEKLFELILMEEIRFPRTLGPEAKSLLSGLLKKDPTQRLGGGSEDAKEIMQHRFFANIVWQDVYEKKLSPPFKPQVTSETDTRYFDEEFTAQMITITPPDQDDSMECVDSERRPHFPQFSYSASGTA

[18] = target: T1, RAC-alpha serine/threonine-protein kinase; assay: Inhibition of LPS-induced Akt phosphorylation at Ser473 in C57BL/6 mouse BMDM cells at 50 to 500 nM incubated for 24 hrs by Western blot analysis; format: cell-based; settings: 0.5 µM, dose 50-500 nM
[19] = target: RAC-beta serine/threonine-protein kinase (Homo sapiens, UniProt P31751); assay: Inhibition of AKT2 (unknown origin); format: binding
Chain of RAC-beta serine/threonine-protein kinase (P31751 whole entry): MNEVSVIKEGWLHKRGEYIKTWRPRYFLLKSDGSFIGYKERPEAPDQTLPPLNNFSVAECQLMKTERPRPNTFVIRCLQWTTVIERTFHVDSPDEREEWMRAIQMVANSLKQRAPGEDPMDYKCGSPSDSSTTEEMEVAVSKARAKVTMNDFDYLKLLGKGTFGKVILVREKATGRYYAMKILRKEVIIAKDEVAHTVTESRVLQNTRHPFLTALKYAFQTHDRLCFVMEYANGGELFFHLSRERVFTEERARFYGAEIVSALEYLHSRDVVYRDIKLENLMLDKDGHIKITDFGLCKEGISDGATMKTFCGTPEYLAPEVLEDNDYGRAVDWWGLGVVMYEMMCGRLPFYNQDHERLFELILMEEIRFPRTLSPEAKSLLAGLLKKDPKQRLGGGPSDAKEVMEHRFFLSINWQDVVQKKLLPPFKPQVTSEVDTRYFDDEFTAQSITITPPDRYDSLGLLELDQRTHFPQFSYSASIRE

[20] = tested on: Mus musculus; assay: as §3, with “Th17 (Il-4+)” for “Th1 (IFN-gamma+)”, “DLN” for “spleen”; format: functional, organism-based; settings: dose 75-150 mg/kg, route po, time 14.0 day
[21] = Inhibition of M1 macrophage polarization in C57BL/6 mouse BMDM cells assessed as fold decrease in Inos gene level at 1 uM incubated for 24 hrs by qRT-PCR analysis (reference value: 1); format: functional
[22] = tested on: Mus musculus; assay: Anti-inflammatory activity in MOG (35 to 55 residues)/pertussis toxin-induced experimental autoimmune encephalomyelitis C57BL/6 mouse model assessed as attenuation of demyelination in spinal cord at 75 to 150 mg/kg, po administered once daily starting from day 7 to day 20 by luxol fast blue staining based analysis; format: functional, organism-based; settings: dose 75-150 mg/kg, time 14.0 day
[23] = tested on: Mus musculus; assay: as §2, with “M2” for “inhibition of M1”, “increase” for “decrease”, “Mrc1” for “Mcp1”, “CNS at 75 to 150 mg/kg, po” for “CNS”, “administered” for “administered orally”; format: functional, organism-based; settings: dose 75-150 mg/kg, time 14.0 day
[24] = Inhibition of LPS-induced M1 macrophage polarization in C57BL/6 mouse BMDM cells assessed as fold change in IL-6 gene level at 1 uM preincubated with LPS for 24 hrs followed by compound addition and measured after 24 hrs by qRT-PCR analysis (reference value: 36.05 +/- 10.74); format: functional
[25] = tested on: Mus musculus; assay: as §2, with “interferon-gamma” for “Mcp1”, “CNS at 75 to 150 mg/kg, po” for “CNS”, “administered” for “administered orally”; format: functional, organism-based; settings: dose 75-150 mg/kg, time 14.0 day
[26] = tested on: Mus musculus; assay: as §1, with “as” for “as T cell activation by measuring”, “F4/80+ CD206+ M2 macrophage” for “CD44lo CD62Lhi naive T cells”; format: functional; settings: dose 75-150 mg/kg, time 14 day
[27] = tested on: Mus musculus; assay: as §1, with “decrease” for “increase”, “CD44hi CD62Llo” for “CD44lo CD62Lhi naive”, “DLN” for “spleen”; format: functional; design: scale not given: the % may be the effect or the level left; settings: dose 75-150 mg/kg, time 14 day
[28] = Tmax in ICR mouse at 50 mg/kg, po measured upto 24 hrs by LC/MS analysis; format: ADME, organism-based; settings: in vivo
[29] = tested on: Mus musculus; assay: (§4) Anti-inflammatory activity in MOG (35 to 55 residues)/pertussis toxin-induced experimental autoimmune encephalomyelitis C57BL/6 mouse model assessed as decrease in disease progression by measuring clinical score at 75 to 150 mg/kg, po administered once daily starting from day 7 to day 20; format: functional, organism-based; settings: dose 75-150 mg/kg, time 14.0 day
[30] = target: RAC-alpha serine/threonine-protein kinase (Homo sapiens, UniProt P31749); assay: Inhibition of AKT1 (unknown origin); format: binding
Chain of RAC-alpha serine/threonine-protein kinase (Homo sapiens, UniProt P31749) (P31749 whole entry): as the sequence (P31750 whole entry) above, with N2S, S50A, A100T, R112K, T117E, T389K, N410G, D415H counted along it

[31] = AUC(0 to t) in ICR mouse at 50 mg/kg, po measured upto 24 hrs by LC/MS analysis; format: ADME, organism-based; design: dose 50 mg/kg, time < 24 hrs, route po; settings: in vivo
[32] = tested on: Mus musculus; assay: as §4, with “F4/80+ CD86+ M1 macrophage in DLN” for “disease progression by measuring clinical score”, “20 by flow cytometric analysis” for “20”; format: functional, organism-based; settings: dose 75-150 mg/kg, time 14.0 day

For `Cl.Cn1ncc(Br)c1-c1ccc(C(=O)N[C@@H]2CNCC[C@H]2c2ccc(F)c(F)c2)cc1C1CC1`, the inhibition [1] was “Dose-Dependent Effect”, the Activity [2] was “Active” and the Activity [3] was “Dose-Dependent Effect”. For the same molecule, the Activity [4] was “Active”, the AUC(0-inf) [5] was 27900 ng·h/mL and the Activity [6] was “Dose-Dependent Effect”. The Activity [7] was “Dose-Dependent Effect”, the Activity [8] was “Dose-Dependent Effect” and the inhibition [9] was “Dose-Dependent Effect”. The Activity [10] was “Active”, the Activity [11] was 10.6% and the “fold change (FC)” value [12] was 14.31. For the same molecule, the Activity [13] was 19%, the half-life [14] was 13.7 h and the Activity [15] was “Active”. For the same molecule, the Activity [16] was “Active”, the “inhibition (INH)” value [17] was “Not Active” and the “inhibition (INH)” value [18] was “Not Active”. For the same molecule, the IC50 [19] was > 1000 nM, the Activity [20] was “Dose-Dependent Effect” and the “fold change (FC)” value [21] was 0.49. For the same molecule, the Activity [22] was “Active”, the Activity [23] was “Active” and the “fold change (FC)” value [24] was 69.99. The Activity [25] was “Active”, the Activity [26] was 12.4% and the Activity [27] was 29%. For the same molecule, the Tmax [28] was 4 h, the Activity [29] was “Active” and the IC50 [30] was 434 nM. The AUC(0-t) at 24 h [31] was 27600 ng·h/mL and the Activity [32] was “Active”.
